Experimental data: article PMC4753412, “Involvement of an octose ketoreductase and two acyltransferases in the biosynthesis of paulomycins” (Scientific Reports, 2016)
≈ marks a conversion by molar mass, not a printed value. Like-named read-outs stand apart in the source and are kept apart here.

Key:
Assay in all cases: microbe, parasite or virus in culture
Set-up in all cases: agar dilution antibacterial assay, minimum inhibitory concentration
[1] = tested on: S. epidermidis; conditions: Staphylococcus epidermidis, 24 h
Procedure: (§1) Antibacterial activity was determined by agar dilution method according to the method as described. […], […], Staphylococcus epidermidis, Staphylococcus aureus and Bacillus subtilis were used as the tested bacteria. After incubation for 24 h at 37 °C, the MICs were calculated (Table S3).

[2] = tested on: S. pyogenes; conditions: Streptococcus pyogenes, 24 h
Procedure: as §1

[3] = tested on: S. pneumoniae; conditions: Streptococcus pneumoniae, 24 h
Procedure: as §1

[4] = tested on: Bacillus subtilis; conditions: 24 h
Procedure: as §1

[5] = tested on: S. aureus; conditions: Staphylococcus aureus, 24 h
Procedure: as §1

CC=C(N=C=S)C(=O)OCC1OC(C2(O)CC(=O)C(N)=C(C(=O)O)C2=O)C(O)C(OC2CC(OC)C(O)(C(C)OC(=O)C(C)C)C(C)O2)C1O (stereo not shown) [compound 8, 8]
MIC ([1]; read-out: MIC 8): > 100 µg/mL
MIC ([2]; read-out: MIC 8): > 50 µg/mL
MIC ([3]; read-out: MIC 8): > 100 µg/mL
MIC ([4]; read-out: MIC 8): > 100 µg/mL
MIC ([5]; read-out: MIC 8): > 100 µg/mL

CC=C(N=C=S)C(=O)OCC1OC(C2(O)CC(=O)C(N)=C(C(=O)O)C2=O)C(O)C(OC2CC(OC)C(O)(C(C)=O)C(C)O2)C1O (stereo not shown) [compound 10, 10]
MIC ([1]; read-out: MIC 10): > 100 µg/mL
MIC ([2]; read-out: MIC 10): > 100 µg/mL
MIC ([3]; read-out: MIC 10): > 100 µg/mL
MIC ([4]; read-out: MIC 10): > 100 µg/mL
MIC ([5]; read-out: MIC 10): > 100 µg/mL

CC=C(N=C=S)C(=O)OC1C(COC(C)=O)OC(C2(O)CC(=O)C(N)=C(C(=O)O)C2=O)C(O)C1OC1CC(OC)C(O)(C(C)OC(=O)C(C)CC)C(C)O1 (stereo not shown) [compound 3, 3]
MIC ([1]; read-out: MIC 3): 0.05 µg/mL (≈ 0.0635 µM)
MIC ([2]; read-out: MIC 3): 0.025 µg/mL (≈ 0.0318 µM)
MIC ([3]; read-out: MIC 3): 0.05 µg/mL (≈ 0.0635 µM)
MIC ([4]; read-out: MIC 3): 0.1 µg/mL (≈ 0.127 µM)
MIC ([5]; read-out: MIC 3): 0.1 µg/mL (≈ 0.127 µM)

CC=C(N=C=S)C(=O)OCC1OC(C2(O)CC(=O)C(N)=C(C(=O)O)C2=O)C(O)C(OC2CC(OC)C(O)(C(C)OC(=O)C(C)CC)C(C)O2)C1O (stereo not shown) [compound 9, 9]
MIC ([1]; read-out: MIC 9): > 100 µg/mL
MIC ([2]; read-out: MIC 9): > 50 µg/mL
MIC ([3]; read-out: MIC 9): > 100 µg/mL
MIC ([4]; read-out: MIC 9): > 100 µg/mL
MIC ([5]; read-out: MIC 9): > 100 µg/mL

C/C=C(\N=C=S)C(=O)O[C@H]1[C@@H](O[C@H]2C[C@H](OC)[C@@](O)([C@H](C)OC(=O)C(C)C)[C@H](C)O2)[C@@H](O)[C@H]([C@@]2(O)CC(=O)C(=N)C(C(=O)O)=C2O)O[C@@H]1COC(C)=O [compound 4, paulomycin B]
MIC ([1]; read-out: MIC 4): 0.05 µg/mL (≈ 0.0647 µM)
MIC ([2]; read-out: MIC 4): 0.025 µg/mL (≈ 0.0324 µM)
MIC ([3]; read-out: MIC 4): 0.05 µg/mL (≈ 0.0647 µM)
MIC ([4]; read-out: MIC 4): 0.1 µg/mL (≈ 0.129 µM)
MIC ([5]; read-out: MIC 4): 0.1 µg/mL (≈ 0.129 µM)
